The record followed here is ChEMBL document CHEMBL4184293, “Structure-based design and biological evaluation of inhibitors of the pseudomonas aeruginosa heme oxygenase (pa-HemO)” (Bioorg Med Chem Lett, 2018).

One experiment concerns the target T1, Heme oxygenase (Pseudomonas aeruginosa, UniProt O69002).
T1 sequence (O69002 whole entry): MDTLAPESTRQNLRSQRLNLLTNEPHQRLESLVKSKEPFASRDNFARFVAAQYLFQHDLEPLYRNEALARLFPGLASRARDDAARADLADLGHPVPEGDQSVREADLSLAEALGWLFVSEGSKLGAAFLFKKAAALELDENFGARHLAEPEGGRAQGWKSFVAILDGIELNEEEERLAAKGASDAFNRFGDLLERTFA
Description: Binding affinity to Pseudomonas aeruginosa HemO by intrinsic fluorescence quenching assay.

Experiment [1] has as its system Pseudomonas aeruginosa. Briefly: Antibacterial activity against Pseudomonas aeruginosa PAO1 after 4 hrs in presence of heme or FeCl3. Format: functional.
Experiment [2] addresses T2, Heme oxygenase (Pseudomonas aeruginosa) (UniProt O69002).
T2 sequence (whole entry): T1 sequence (O69002 whole entry)
Description: Binding affinity to Pseudomonas aeruginosa HemO assessed as chemical shift perturbations after 2 hrs by 15N-1H TROSY HSQC NMR method.

In experiment [3] the test system is Pseudomonas aeruginosa. Description: Antibiofilm activity against Pseudomonas aeruginosa PAO1 after 24 hrs by crystal violet staining based assay. Format: functional.
The target of experiment [4] is T2, Heme oxygenase (Pseudomonas aeruginosa). Description: Binding affinity to Pseudomonas aeruginosa HemO by STD-NMR method.

Active and inactive are the calls of the source. The rule behind the calls is not given here.

At Heme oxygenase, `O=C(O)CCN1C(=O)C(=Cc2cccc(-c3ccccc3)c2)SC1=S` showed a Kd of 20 µM.

For `O=C(O)CCN1C(=O)/C(=C/c2cn(Cc3ccccc3)c3ccccc23)SC1=S`, at Heme oxygenase, the dissociation constant Kd was found to be 7.4 µM.

At Heme oxygenase, `COC(=O)c1ccc(-c2ccc(C=C3SC(=S)N(CCC(=O)O)C3=O)o2)cc1` returned a dissociation constant Kd of 28 µM.

In the case of `O=C(O)CCN1C(=O)/C(=C/c2ccco2)SC1=S`, binding at Heme oxygenase was characterised by a dissociation constant (Kd) of 38 µM.

Consider `O=C(O)CCN1C(=O)C(=Cc2ccc(-c3ccccc3)cc2)SC1=S`, for which, in the experiment on Pseudomonas aeruginosa [1] (PAO1, 4 h), the MIC50 was more than 300 µg/mL. Besides, the result in experiment [2] was Active. Also, the MBEC99.9 with Pseudomonas aeruginosa [3] was more than 300 µg/mL. Also, the affinity at Heme oxygenase, expressed as Kd, was 3.3 µM.

At Heme oxygenase, `O=C(O)CCN1C(=O)/C(=C/c2ccc(Cl)c(Cl)c2)SC1=S` registered an equilibrium dissociation constant (Kd) of 14 µM. That is a double-digit micromolar value.

Turning to `O=C1Nc2ccc(Cl)cc2/C1=C\c1ccc(-c2ccccc2)cc1`, the MIC50 result with Pseudomonas aeruginosa [1] was “inactive”. The MBEC99.9 in the experiment on Pseudomonas aeruginosa [3] is more than 300 µg/mL. On Heme oxygenase, this compound showed a Kd of 5.2 µM.

As to `O=C1NC(=S)SC1=Cc1ccc(-c2ccccc2)cc1`, the MIC50 result in the experiment on Pseudomonas aeruginosa [1] was “inactive”. Further, the MBEC99.9 in the experiment with Pseudomonas aeruginosa [3] was more than 300 µg/mL. In addition, binding on Heme oxygenase was characterised by a dissociation constant (Kd) of 2.3 µM.

Compound `N#Cc1cccc(-c2ccc(C=C3SC(=S)N(CCC(=O)O)C3=O)o2)c1` had a Kd on Heme oxygenase of 13 µM.

Consider `COc1cccc(/C=C2\SC(=S)N(CCC(=O)O)C2=O)c1`, for which binding at Heme oxygenase was characterised by a dissociation constant (Kd) of 25 µM. Against the preceding compound, the Kd is about 1.9-fold higher.

In the case of `O=C(O)CCN1C(=O)C(=Cc2ccc(-c3cccc(O)c3)o2)SC1=S`, the MIC50 in the experiment on Pseudomonas aeruginosa [1] (PAO1, 4 h) was more than 300 µg/mL. For the same compound, the outcome in experiment [2] was Active. The same compound had an MBEC99.9 in the experiment with Pseudomonas aeruginosa [3] of more than 300 µg/mL. The compound further registered a Kd on Heme oxygenase of 1.1 µM.

`O=C(O)CCN1C(=O)C(=Cc2ccc3ccccc3c2)SC1=S` returned a Kd on Heme oxygenase of 3.9 µM.

`O=C(O)CCN1C(=O)C(=Cc2cccc3ccccc23)SC1=S`: at Heme oxygenase, binding was put at a Kd of 13 µM.

On Heme oxygenase, `O=C(O)CCN1C(=O)/C(=C/c2ccc(Cl)cc2)SC1=S` returned a Kd of 15 µM.

As for `O=C(O)CCN1C(=O)/C(=C/c2ccc(Oc3ccccc3)cc2)SC1=S`, the Kd on Heme oxygenase is 6.5 µM.

As to `COc1ccc(/C=C2\SC(=S)N(CCC(=O)O)C2=O)cc1`, the Kd on Heme oxygenase turned out to be 23 µM.

On Heme oxygenase, `COC(=O)c1cccc(-c2ccc(C=C3SC(=S)N(CCC(=O)O)C3=O)o2)c1` gave a Kd of 7.6 µM.

For `NCCN1C(=O)/C(=C/c2ccc(-c3ccccc3)cc2)SC1=S`, the MIC50 in the experiment on Pseudomonas aeruginosa [1] (PAO1, 4 h) was more than 300 µg/mL. In the experiment with Pseudomonas aeruginosa [3], this compound displayed an MBEC99.9 of more than 300 µg/mL. Besides, the Kd at Heme oxygenase was 43 µM.

With `O=C(O)CCN1C(=O)/C(=C/c2cccc(Nc3ccccc3)c2)SC1=S`, the MIC50 in the experiment with Pseudomonas aeruginosa [1] (PAO1, 4 h) was more than 300 µg/mL. Moreover, the outcome in experiment [2] was Active. The compound further gave an MBEC99.9 with Pseudomonas aeruginosa [3] of more than 300 µg/mL. Besides, on Heme oxygenase, the affinity, expressed as Kd, was 1.2 µM.

Consider `CC(C)c1ccc(/C=C2\SC(=S)N(CCC(=O)O)C2=O)cc1`, for which, at Heme oxygenase, the Kd amounted to 10 µM. This lies in the double-digit micromolar range.

In the case of `CN(C)CCN1C(=O)C(=Cc2ccc(-c3ccccc3)cc2)SC1=S`, the MIC50 entry in the experiment with Pseudomonas aeruginosa [1] was “inactive”. Moreover, the MBEC99.9 with Pseudomonas aeruginosa [3] is more than 300 µg/mL. For the same compound, the Kd on Heme oxygenase worked out at 18 µM.

As for `O=C1/C(=C/c2ccccn2)SC(=S)N1CCc1nnn[nH]1`, the result in experiment [2] and in experiment [4] was Active. At Heme oxygenase, this compound came in with a Kd of 27 µM.

On to `COC(=O)c1cc(-c2ccc(C=C3SC(=S)N(CCC(=O)O)C3=O)o2)ccc1N`, for which binding at Heme oxygenase was characterised by a dissociation constant (Kd) of 6.5 µM.

`O=C1/C(=C/c2ccco2)SC(=S)N1CCc1nn[nH]n1` returned a dissociation constant Kd at Heme oxygenase of 26 µM.

`O=C(O)CCN1C(=O)/C(=C/c2c[nH]c3ccccc23)SC1=S` gave a Kd on Heme oxygenase of 6.4 µM.

As to `O=C(O)CCN1C(=O)/C(=C/c2ccc(Cc3ccccc3)cc2)SC1=S`, on Heme oxygenase, the Kd turned out to be 7 µM.

With `O=C(O)CCN1C(=O)/C(=C/c2ccc(F)cc2)SC1=S`, on Heme oxygenase, the Kd worked out at 44 µM.

Compound `O=C(O)CCN1C(=O)/C(=C/c2ccc(O)c(O)c2)SC1=S` registered a Kd on Heme oxygenase of 57 µM. The Kd values of the last two compounds are within 1.5-fold of each other.

As to `O=C1/C(=C/c2ccc(O)c(O)c2)SC(=S)N1CCc1nnn[nH]1`, binding on Heme oxygenase was characterised by a dissociation constant (Kd) of 45 µM.

Regarding `O=C(O)CCN1C(=O)/C(=C/c2ccccn2)SC1=S`, the Kd on Heme oxygenase stood at 51 µM.

The Kd is the equilibrium constant for the complex coming apart. Lower therefore signals tighter binding. Broadly, the MIC50 is the lowest concentration that inhibits either 50% of growth or 50% of the strains tested, depending on the study.
